Results: PMC6033896, “Discovery of Mcl-1 inhibitors from integrated high throughput and virtual screening” (Scientific Reports, 2018)

How the values were obtained:
Mcl-1/Noxa interaction = test system: Mcl-1/Noxa interaction; set-up: method as in PubChem BioAssay AID 1417; details: Dose Response Confirmation for Mcl-1/Noxa Interaction Inhibitors; ref PubChem BioAssay AID 1417; cited from earlier work
15N-labeled Mcl-1 = biological target: T1, 15N-labeled Mcl-1 (Homo sapiens, UniProt Q07820); assay: 1H,15N HSQC NMR chemical shift perturbation; details: direct binding to Mcl-1
T1 construct: human Mcl-1 (residues 171–323); made in house; host or cells: E. coli (bacteria grown on M9 minimal medium with 15N ammonium sulphate)
T1 sequence (Q07820 171-323): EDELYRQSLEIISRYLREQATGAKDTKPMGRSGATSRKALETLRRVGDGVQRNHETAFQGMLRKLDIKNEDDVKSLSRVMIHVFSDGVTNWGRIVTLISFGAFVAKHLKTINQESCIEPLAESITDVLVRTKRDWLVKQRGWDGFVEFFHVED
Method: NMR studies were performed as previously described. In brief, the ^15N-labeled Mcl-1 protein was prepared and purified using the same protocol as for unlabelled protein with the exception that the bacteria were grown on M9 minimal media supported with 1 g/L of (^15NH4)2SO4. Protein samples were prepared in a 20 mM sodium phosphate, 150 mM NaCl and 1 mM DTT solution at pH 7 in 7% D2O. The binding mode of compounds has been characterized with a solution of uniformly ^15N-labeled Mcl-1 (75 μM) in the absence and presence of added compounds (in 1 or 6% final DMSO) with the indicated molar ratio concentrations. The total volume of each sample was 150 μL and samples were prepared in Bruker tubes (Bruker, # Z117724). All Spectra were acquired at 30 °C on a Bruker 600 MHz NMR spectrometer equipped with a cryogenic probe, processed using Bruker TopSpin and rNMR, and were analysed with Sparky. Plots of chemical shift changes were calculated as ((Δ^1H ppm)2 + (0.2(Δ^15N ppm))2)0.5 of Mcl-1 amide upon addition of compound. The absence of a bar in a chemical shift plot indicates no chemical shift difference or the presence of a proline or residue that is overlapped or not assigned. The cutoff threshold for determining the significance of the chemical shift was based on one standard deviation above the average of all chemical shifts.

mutant Mcl-1 R263A = biological target: T2, mutant Mcl-1 R263A (Homo sapiens, UniProt Q07820, R263A); assay: BLI-based direct binding assay; details: compared with wild-type Mcl-1
T2 construct: human Mcl-1 (residues 171–323); His tag (pHis-TEV vector) (N); made in house; host or cells: E. coli Rosetta2 DE3
T2 sequence (Q07820 171-323 R263A): as the sequence (Q07820 171-323) above, with R93A counted along it
Method: Mcl-1 and mutant Mcl-1 R263A proteins were biotinylated using the Thermo EZ-link Sulpho-NHS-LC-biotin biotinylation kit (cat. 21435). Protein and biotin were mixed in a 1:1 molar ratio in PBS on ice for 2 hours. The reaction mixture was dialyzed in PBS buffer to remove excess biotin. BLI experiments were performed using an OctetRED96 instrument from PALL/ForteBio. All experiments were performed at 30 °C using PBS (Gibco, #10010-23), and 0.005% Tween 20 as the assay buffer. Assays were conducted in 96-well, black, microplates (Greiner bio-one, #655209) containing the protein solutions for immobilization, pure assay buffer for dissociation, and serial dilutions of compounds in the presence of 5% DMSO to be tested. During the experiment, sample plates were continuously shaken at 1000 rpm. Biotinylated proteins were immobilized on Super Streptavidin (SSA) biosensors by dipping sensors into plate wells containing protein solutions. Biotinylated blocked Streptavidin sensors were used as control sensors prepared by the protocol provided from the manufacturer. Association (3 Minutes) and dissociation (3 Minutes) cycles of compounds were started by dipping sensors to compound wells with different tested concentrations as well as in pure buffer wells. Buffer-only reference was included in all assays. […]

[1] = test system: Eµ-myc lymphoma cells overexpressing Bcl-xL; assay: Eµ-myc lymphoma cell viability, flow cytometry; assay type: cell-based, mice; details: increasing concentrations, 15 h
[2] = test system: Bak−/− single knockout MEFs; assay: MEF cell death, propidium iodide flow cytometry; assay type: cell-based, mouse; details: increasing concentrations, 15 h
Method: (§1) MEF cells, including wild-type, Bax/Bak double knockout, Bax−/− single knockout, and Bak−/− single knockout were tested and characterized (Supplementary Fig. S3). The cells were cultured in DMEM (Life Technologies), supplemented with 10% fetal bovine serum (FBS) (Thermo Scientific HyClone) and 1% Penicillin/streptomycin solution (Life Technologies). The retrovirally transduced lymphoma cells isolated from Eμ-myc transgenic mice were provided by Ricky W. Johnstone at the University of Melbourne, Melbourne, Australia and cultured as previously described[37],[65].
(§2) MEFs were seeded in 24-well plates at 0.5 × 10^5 cells/well, left to adhere for 5 hours and then treated for 15 hours with increasing concentrations of the compounds. The cells were harvested, washed with phosphate-buffered saline (PBS) and stained with 0.025 mg/ml propidium iodide (MP Biomedicals). The percentage of the propidium iodide positive population was determined by flow cytometry and calculated using WinList 3.0.

[3] = test system: Bax−/− single knockout MEFs; assay: MEF cell death, propidium iodide flow cytometry; assay type: cell-based, mouse; details: increasing concentrations, 15 h
Method: as §1, §2

SMILES | IC50 (Mcl-1/Noxa interaction) [µM] | chemical shift perturbations of Mcl-1 amides (HSQC NMR) (15N-labeled Mcl-1) | binding to mutant R263A Mcl-1 (BLI) (mutant Mcl-1 R263A) | effect on Eµ-myc cells overexpressing Bcl-xL [1] | cell death in Bak−/− MEFs [2] | cell death in Bax−/− MEFs [3]
O=C(CSc1nnc(-c2ccco2)c(-c2ccco2)n1)Nc1ccccc1 [Compound 19] | 3.1 | concentration-dependent perturbations | no appreciable binding | – | – | –
O=C(CSc1nnc(-c2ccco2)c(-c2ccco2)n1)Nc1cccc(C(F)(F)F)c1 [Compound 39] | – | – | – | minimal effect | rescued the cells | rescued the cells
